Columns and labels:
Assay type in all cases: in vivo
Avena fatua (AVEFA) [1] = test: Pre-emergence herbicidal activity, glasshouse pot test; conditions: Avena fatua, 312 h, Rate 250 g/ha, evaluated after 13 days, read-out: Pre-emergence activity AVEFA (100=total damage to plant; 0=no damage to plant)
How it was run: (§1)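 Visual damage (0 = no damage, 100 = total damage) was rated 13 days after spraying. Treatment was applied one day after sowing for pre-emergence, or after 8 days of cultivation for post-emergence, as aqueous spray of an acetone/water (50:50) formulation with 0.5% Tween 20.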

[2] = tested on: Echinochloa crus-galli (ECHCG); test: as above; conditions: Echinochloa crus-galli, 312 h, Rate 250 g/ha, evaluated after 13 days, read-out: Pre-emergence activity ECHCG (100=total damage to plant; 0=no damage to plant)
How it was run: as §1

[3] = tested on: Alopecurus myosuroides (ALOMY); test: as above; conditions: Alopecurus myosuroides, 312 h, Rate 250 g/ha, evaluated after 13 days, read-out: Pre-emergence activity ALOMY (100=total damage to plant; 0=no damage to plant)
How it was run: as §1

Lolium perenne (LOLPE) [4] = test: as above; conditions: Lolium perenne, 312 h, Rate 250 g/ha, evaluated after 13 days, read-out: Pre-emergence activity LOLPE (100=total damage to plant; 0=no damage to plant)
How it was run: as §1

Avena fatua (AVEFA) [5] = test: Post-emergence herbicidal activity, glasshouse pot test; conditions: Avena fatua, 312 h, rate 250 g/ha, evaluated after 13 days, read-out: Post-emergence activity AVEFA (100=total damage to plant; 0=no damage to plant)
How it was run: as §1

[6] = tested on: Echinochloa crus-galli (ECHCG); test: as above; conditions: Echinochloa crus-galli, 312 h, rate 250 g/ha, evaluated after 13 days, read-out: Post-emergence activity ECHCG (100=total damage to plant; 0=no damage to plant)
How it was run: as §1

[7] = tested on: Alopecurus myosuroides (ALOMY); test: as above; conditions: Alopecurus myosuroides, 312 h, rate 250 g/ha, evaluated after 13 days, read-out: Post-emergence activity ALOMY (100=total damage to plant; 0=no damage to plant)
How it was run: as §1

Lolium perenne (LOLPE) [8] = test: as above; conditions: Lolium perenne, 312 h, rate 250 g/ha, evaluated after 13 days, read-out: Post-emergence activity LOLPE (100=total damage to plant; 0=no damage to plant)
How it was run: as §1

`CC1(C)OC(C)(C)C(O)=C(c2cc(Oc3cnc4cc(F)ccc4n3)ccc2C2CC2)C1=O` [Example A-372] gave a pest or weed control at 250 g/ha (Avena fatua (AVEFA) [1]; pre-emergence) of 90%, a pest or weed control at 250 g/ha ([2]; pre-emergence) of 90% and a pest or weed control at 250 g/ha ([3]; pre-emergence) of 70%. The pest or weed control at 250 g/ha (Lolium perenne (LOLPE) [4]; pre-emergence) was 100%, the pest or weed control at 250 g/ha (Avena fatua (AVEFA) [5]) was 100% and the pest or weed control at 250 g/ha [6] was 100%. It also gave a pest or weed control at 250 g/ha [7] of 100% and a pest or weed control at 250 g/ha (Lolium perenne (LOLPE) [8]) of 100%.

`CCc1ccc(Oc2ncc(Cl)cc2C(F)(F)F)cc1C1=C(O)CC2(CCOCC2)CC1=O` [Example A-268] was tested, and the pest or weed control at 250 g/ha (Avena fatua (AVEFA) [1]; pre-emergence spray) was 80%, the pest or weed control at 250 g/ha ([2]; pre-emergence spray) was 100% and the pest or weed control at 250 g/ha ([3]; pre-emergence spray) was 90%. For the same compound, the pest or weed control at 250 g/ha (Lolium perenne (LOLPE) [4]; pre-emergence spray) was 100%, the pest or weed control at 250 g/ha (Avena fatua (AVEFA) [5]; glasshouse) was 90% and the pest or weed control at 250 g/ha ([6]; glasshouse) was 100%. It also gave a pest or weed control at 250 g/ha ([7]; glasshouse) of 90% and a pest or weed control at 250 g/ha (Lolium perenne (LOLPE) [8]; glasshouse) of 70%.

For `CCc1ccc(Oc2ccc([N+](=O)[O-])cc2)cc1C1=C(O)C(C)(C)OC(C)(C)C1=O` [Example A-195], the pest or weed control at 250 g/ha (Avena fatua (AVEFA) [1]; pre-emergence spray) was 0%, the pest or weed control at 250 g/ha ([2]; pre-emergence spray) was 100% and the pest or weed control at 250 g/ha ([3]; pre-emergence spray) was 30%. For the same compound, the pest or weed control at 250 g/ha (Lolium perenne (LOLPE) [4]; pre-emergence spray) was 40%, the pest or weed control at 250 g/ha (Avena fatua (AVEFA) [5]; glasshouse) was 60% and the pest or weed control at 250 g/ha ([6]; glasshouse) was 100%. The pest or weed control at 250 g/ha ([7]; glasshouse) was 60% and the pest or weed control at 250 g/ha (Lolium perenne (LOLPE) [8]; glasshouse) was 80%.
